# In ChEMBL document CHEMBL1201861, “Genomics of Drug Sensitity in Cancer screening data, Wellcome Trust Sanger Institute”:
# Legend:
# [1] = test system: NCI-H1436; test: cells; assay type: functional, cell-based; conditions: Homo sapiens;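 also: growth suppression of human NCI-H1436 cells, determined with a cell viability readout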
# Description: SANGER: Inhibition of human NCI-H1436 cell growth in a cell viability assay.
# [2] = test system: NCCIT; test: SANGER: Inhibition of human NCCIT cell growth in a cell viability assay.; assay type: functional, cell-based
# [3] = test system: DMS-153; test: cells; assay type: functional, cell-based; conditions: Homo sapiens
# Description: SANGER: Inhibition of human DMS-153 cell growth in a cell viability assay.
# [4] = test system: TUR; test: cells; assay type: functional, cell-based; conditions: Homo sapiens;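 also: growth inhibition of human TUR cells, read out with a cell viability assay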
# Description: SANGER: Inhibition of human TUR cell growth in a cell viability assay.
# [5] = test system: ARH-77; test: cells; assay type: functional, cell-based; conditions: Homo sapiens;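 also: growth inhibition of ARH-77 cells, read out by a cell viability assay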
# Description: SANGER: Inhibition of human ARH-77 cell growth in a cell viability assay.
# [6] = test system: KARPAS-422; test: cells; assay type: functional, cell-based; conditions: Homo sapiens
# Description: SANGER: Inhibition of human KARPAS-422 cell growth in a cell viability assay.
# [7] = test system: NCI-H1522; test: cells; assay type: functional, cell-based; conditions: Homo sapiens;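 also: growth inhibition of NCI-H1522 cells, read out with a cell viability assay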
# Description: SANGER: Inhibition of human NCI-H1522 cell growth in a cell viability assay.
# [8] = test system: EB-3; test: cells; assay type: functional, cell-based; conditions: Homo sapiens;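 also: human EB-3 cells, growth inhibition read out via a cell viability assay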
# Description: SANGER: Inhibition of human EB-3 cell growth in a cell viability assay.
# [9] = test system: JIYOYE; test: cells; assay type: functional, cell-based; conditions: Homo sapiens
# Description: SANGER: Inhibition of human JiyoyeP-2003 cell growth in a cell viability assay.
# [10] = test system: CPC-N; test: cells; assay type: functional, cell-based; conditions: Homo sapiens;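 also: growth inhibition of CPC-N cells, with a cell viability assay as the readout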
# Description: SANGER: Inhibition of human CPC-N cell growth in a cell viability assay.
# [11] = test system: K052; test: cells; assay type: functional, cell-based; conditions: Homo sapiens;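 also: Read-out from a cell viability assay, IC50 reflecting suppression of K052 cell growth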
# Description: SANGER: Inhibition of human K052 cell growth in a cell viability assay.
# [12] = test system: L-540; test: cells; assay type: functional, cell-based; conditions: Homo sapiens;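 also: growth inhibition of the human L-540 cell line, read out with a viability assay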
# Description: SANGER: Inhibition of human L-540 cell growth in a cell viability assay.
# [13] = test system: NCI-H1963; test: cells; assay type: functional, cell-based; conditions: Homo sapiens;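 also: cell growth inhibition of the human line, determined with a cell viability assay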
# Description: SANGER: Inhibition of human NCI-H1963 cell growth in a cell viability assay.
# [14] = test system: WSU-NHL; test: cells; assay type: functional, cell-based; conditions: Homo sapiens;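 also: growth inhibition of human WSU-NHL cells, read out with a cell viability assay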
# Description: SANGER: Inhibition of human WSU-NHL cell growth in a cell viability assay.
# [15] = test system: U-118-MG; test: cells; assay type: functional, cell-based; conditions: Homo sapiens
# Description: SANGER: Inhibition of human U-118-MG cell growth in a cell viability assay.
# [16] = test system: KYSE-140; test: cells; assay type: functional, cell-based; conditions: Homo sapiens;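 also: cell viability assay measuring growth inhibition in human KYSE-140 cells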
# Description: SANGER: Inhibition of human KYSE-140 cell growth in a cell viability assay.
# [17] = test system: HuP-T4; test: cells; assay type: functional, cell-based; conditions: Homo sapiens;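 also: cell viability assay measuring how much HuP-T4 cell growth is inhibited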
# Description: SANGER: Inhibition of human HuP-T4 cell growth in a cell viability assay.
# [18] = test system: KYSE-70 cell line; test: cells; assay type: functional, cell-based; conditions: Homo sapiens;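 also: cell viability assay read-out, with IC50 expressing suppression of KYSE-70 cell growth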
# Description: SANGER: Inhibition of human KYSE-70 cell growth in a cell viability assay.
# [19] = test system: Calu-3; test: cells; assay type: functional, cell-based; conditions: Homo sapiens;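 also: growth inhibition of human Calu-3 cells, determined with a cell viability assay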
# Description: SANGER: Inhibition of human Calu-3 cell growth in a cell viability assay.
# [20] = test system: KU-19-19; test: cells; assay type: functional, cell-based; conditions: Homo sapiens
# Description: SANGER: Inhibition of human KU-19-19 cell growth in a cell viability assay.
# [21] = test system: CHP-212; test: cells; assay type: functional, cell-based; conditions: Homo sapiens
# Description: SANGER: Inhibition of human CHP-212 cell growth in a cell viability assay.
# [22] = test system: OE33; test: cells; assay type: functional, cell-based; conditions: Homo sapiens;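 also: growth inhibition of human OE33 cells, measured by a cell viability assay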
# Description: SANGER: Inhibition of human OE33 cell growth in a cell viability assay.
# [23] = test system: IGR-1; test: cells; assay type: functional, cell-based; conditions: Homo sapiens;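 also: growth inhibition of human IGR-1 cells, read out with a cell viability assay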
# Description: SANGER: Inhibition of human IGR-1 cell growth in a cell viability assay.
# [24] = test system: SJRH30; test: cells; assay type: functional, cell-based; conditions: Homo sapiens;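 also: growth inhibition of human SJRH30 cells, read out with a cell viability assay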
# Description: SANGER: Inhibition of human SJRH30 cell growth in a cell viability assay.
# [25] = test system: NCI-H661; test: cells; assay type: functional, cell-based; conditions: Homo sapiens;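 also: cell viability assay read-out, IC50 being the concentration that inhibits growth of the cells by half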
# Description: SANGER: Inhibition of human NCI-H661 cell growth in a cell viability assay.
# [26] = test system: COLO-741; test: cells; assay type: functional, cell-based; conditions: Homo sapiens
# Description: SANGER: Inhibition of human COLO-741 cell growth in a cell viability assay.
# [27] = test system: HCC 2998; test: cells; assay type: functional, cell-based; conditions: Homo sapiens;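 also: growth inhibition of human HCC2998 cells, measured with a cell viability read-out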
# Description: SANGER: Inhibition of human HCC2998 cell growth in a cell viability assay.
# [28] = test system: NCI-H2030; test: cells; assay type: functional, cell-based; conditions: Homo sapiens;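 also: growth inhibition of human NCI-H2030 cells, read out by a cell viability assay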
# Description: SANGER: Inhibition of human NCI-H2030 cell growth in a cell viability assay.
# [29] = test system: NCI-H1755; test: cells; assay type: functional, cell-based; conditions: Homo sapiens;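 also: cell viability readout used to measure growth inhibition of NCI-H1755 cells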
# Description: SANGER: Inhibition of human NCI-H1755 cell growth in a cell viability assay.
# [30] = test system: KYSE-270; test: cells; assay type: functional, cell-based; conditions: Homo sapiens;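 also: cell growth inhibition measured with a viability assay in the human KYSE-270 line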
# Description: SANGER: Inhibition of human KYSE-270 cell growth in a cell viability assay.
# [31] = test system: HT-29; test: cells; assay type: functional, cell-based; conditions: Homo sapiens;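 also: growth inhibition of human HT-29 cells, read out by a cell viability assay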
# Description: SANGER: Inhibition of human HT-29 cell growth in a cell viability assay.
# [32] = test system: CAL-51; test: cells; assay type: functional, cell-based; conditions: Homo sapiens;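 also: human CAL-51 cell line, growth inhibition read out via a cell viability assay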
# Description: SANGER: Inhibition of human CAL-51 cell growth in a cell viability assay.
# [33] = test system: MHH-ES-1; test: cells; assay type: functional, cell-based; conditions: Homo sapiens
# Description: SANGER: Inhibition of human MHH-ES-1 cell growth in a cell viability assay.
# [34] = test system: PA-1; test: cells; assay type: functional, cell-based; conditions: Homo sapiens;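 also: IC50 for suppression of PA-1 cell proliferation, determined with a cell viability read-out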
# Description: SANGER: Inhibition of human PA-1 cell growth in a cell viability assay.
# [35] = test system: VMRC-RCZ; test: cells; assay type: functional, cell-based; conditions: Homo sapiens
# Description: SANGER: Inhibition of human VMRC-RCZ cell growth in a cell viability assay.
# [36] = test system: DMS-273; test: cells; assay type: functional, cell-based; conditions: Homo sapiens
# Description: SANGER: Inhibition of human DMS-273 cell growth in a cell viability assay.
# [37] = test system: G-402; test: cells; assay type: functional, cell-based; conditions: Homo sapiens
# Description: SANGER: Inhibition of human G-402 cell growth in a cell viability assay.
# [38] = test system: SW13; test: cells; assay type: functional, cell-based; conditions: Homo sapiens;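 also: IC50 is inhibition of SW13 cell growth, read out with a cell viability assay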
# Description: SANGER: Inhibition of human SW13 cell growth in a cell viability assay.
# [39] = test system: BFTC-905; test: cells; assay type: functional, cell-based; conditions: Homo sapiens
# Description: SANGER: Inhibition of human BFTC-905 cell growth in a cell viability assay.
# [40] = test system: NCI-H2170; test: cells; assay type: functional, cell-based; conditions: Homo sapiens;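 also: cell viability assay measuring growth inhibition of human NCI-H2170 cancer cells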
# Description: SANGER: Inhibition of human NCI-H2170 cell growth in a cell viability assay.
# [41] = test system: ACHN; test: cells; assay type: functional, cell-based; conditions: Homo sapiens;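 also: cell viability read-out used to gauge how strongly growth of human ACHN cells is suppressed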
# Description: SANGER: Inhibition of human ACHN cell growth in a cell viability assay.
# [42] = test system: RMG-I; test: cells; assay type: functional, cell-based; conditions: Homo sapiens;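 also: growth inhibition of human RMG-I cells, read out with a cell viability assay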
# Description: SANGER: Inhibition of human RMG-I cell growth in a cell viability assay.
# [43] = test system: CP50-MEL-B; test: cells; assay type: functional, cell-based; conditions: Homo sapiens;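 also: growth inhibition of the human cell line, measured with a cell viability read-out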
# Description: SANGER: Inhibition of human CP50-MEL-B cell growth in a cell viability assay.
# [44] = test system: NCI-H1792; test: cells; assay type: functional, cell-based; conditions: Homo sapiens;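 also: growth inhibition of human NCI-H1792 cells, read out as cell viability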
# Description: SANGER: Inhibition of human NCI-H1792 cell growth in a cell viability assay.
# [45] = test system: NCI-H2228; test: cells; assay type: functional, cell-based; conditions: Homo sapiens;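 also: growth inhibition of human NCI-H2228 cells, read out by a cell viability assay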
# Description: SANGER: Inhibition of human NCI-H2228 cell growth in a cell viability assay.
# [46] = test system: KOSC-2; test: cells; assay type: functional, cell-based; conditions: Homo sapiens;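 also: growth inhibition of KOSC-2 cells, read out by a cell viability assay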
# Description: SANGER: Inhibition of human KOSC-2 cell growth in a cell viability assay.
# [47] = test system: HPAF-II; test: cells; assay type: functional, cell-based; conditions: Homo sapiens;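 also: growth inhibition of HPAF-II cells, read out with a cell viability assay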
# Description: SANGER: Inhibition of human HPAF-II cell growth in a cell viability assay.
# [48] = test system: UO-31; test: cells; assay type: functional, cell-based; conditions: Homo sapiens
# Description: SANGER: Inhibition of human U031 cell growth in a cell viability assay.
# [49] = test system: T-24; test: cells; assay type: functional, cell-based; conditions: Homo sapiens;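 also: growth inhibition of T-24 cells, read out with a cell viability assay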
# Description: SANGER: Inhibition of human T-24 cell growth in a cell viability assay.
# [50] = test system: MKN-7; test: cells; assay type: functional, cell-based; conditions: Homo sapiens;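 also: growth inhibition of MKN-7 cells, read out with a cell viability assay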
# Description: SANGER: Inhibition of human MKN7 cell growth in a cell viability assay.
# [51] = test system: CAL-12T; test: cells; assay type: functional, cell-based, Homo sapiens; conditions: Homo sapiens, CAL-12T;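 also: growth inhibition of human CAL-12T cells, read out with a cell viability assay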
# Description: SANGER: Inhibition of human CAL-12T cell growth in a cell viability assay.
# [52] = test system: UMC-11; test: cells; assay type: functional, cell-based; conditions: Homo sapiens;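 also: growth inhibition of UMC-11 cells, read out with a cell viability assay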
# Description: SANGER: Inhibition of human UMC-11 cell growth in a cell viability assay.
# [53] = test system: HEC-1; test: cells; assay type: functional, cell-based; conditions: Homo sapiens;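 also: growth inhibition of the cell line, read out with a cell viability assay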
# Description: SANGER: Inhibition of human HEC-1 cell growth in a cell viability assay.
# [54] = test system: UACC-893; test: cells; assay type: functional, cell-based; conditions: Homo sapiens
# Description: SANGER: Inhibition of human UACC-893 cell growth in a cell viability assay.
# [55] = test system: PANC-03-27; test: cells; assay type: functional, cell-based; conditions: Homo sapiens
# Description: SANGER: Inhibition of human PANC-03-27 cell growth in a cell viability assay.
# [56] = test system: CAL-54; test: cells; assay type: functional, cell-based; conditions: Homo sapiens;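 also: growth inhibition of CAL-54 cells, read out by a viability measurement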
# Description: SANGER: Inhibition of human CAL-54 cell growth in a cell viability assay.
# [57] = test system: TCC-SUP; test: cells; assay type: functional, cell-based; conditions: Homo sapiens;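 also: growth inhibition of TCC-SUP cells, read out with a cell viability assay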
# Description: SANGER: Inhibition of human TCCSUP cell growth in a cell viability assay.
# [58] = test system: COR-L105; test: cells; assay type: functional, cell-based; conditions: Homo sapiens
# Description: SANGER: Inhibition of human COR-L105 cell growth in a cell viability assay.
# [59] = test system: A673; test: cells; assay type: functional, cell-based; conditions: Homo sapiens;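 also: growth inhibition of human A673 cells, read out through a cell viability assay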
# Description: SANGER: Inhibition of human A673 cell growth in a cell viability assay.
# [60] = test system: HOS; test: cells; assay type: functional, cell-based; conditions: Homo sapiens;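 also: growth inhibition of human HOS cells, read out with a cell viability assay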
# Description: SANGER: Inhibition of human HOS cell growth in a cell viability assay.
# [61] = test system: KYSE-150 cell line; test: cells; assay type: functional, cell-based; conditions: Homo sapiens;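 also: growth inhibition of human KYSE-150 cells, read out with a cell viability assay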
# Description: SANGER: Inhibition of human KYSE-150 cell growth in a cell viability assay.
# [62] = test system: BFTC-909; test: cells; assay type: functional, cell-based; conditions: Homo sapiens
# Description: SANGER: Inhibition of human BFTC-909 cell growth in a cell viability assay.
# [63] = test system: Huh-7; test: cells; assay type: functional, cell-based; conditions: Homo sapiens;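 also: HuH-7 cell growth inhibition, read out with a cell viability assay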
# Description: SANGER: Inhibition of human HuH-7 cell growth in a cell viability assay.
compound,measurement,setting,value
CCNc1cc(N[C@H]2CC[C@@H](O)CC2)nc(Nc2ccc3c(ccn3Cc3ccccc3)c2)n1,IC50,[1],> 5120 nM
same,IC50,[2],> 5120 nM
same,IC50,[3],> 5120 nM
same,IC50,[4],> 5120 nM
same,IC50,[5],> 5120 nM
same,IC50,[6],> 5120 nM
same,IC50,[7],> 5120 nM
same,IC50,[8],> 5120 nM
same,IC50,[9],> 5120 nM
same,IC50,[10],> 5120 nM
same,IC50,[11],> 5120 nM
same,IC50,[12],> 5120 nM
same,IC50,[13],> 5120 nM
same,IC50,[14],> 5120 nM
COc1cc(C)c(Sc2cnc(NC(=O)c3ccc(CNC(C)C(C)(C)C)cc3)s2)cc1C(=O)N1CCN(C(C)=O)CC1 (stereo unspecified),IC50,[1],> 10200 nM
same,IC50,[2],> 10200 nM
same,IC50,[3],> 10200 nM
same,IC50,[4],> 10200 nM
same,IC50,[5],> 10200 nM
same,IC50,[6],> 10200 nM
same,IC50,[7],> 10200 nM
same,IC50,[8],> 10200 nM
same,IC50,[9],> 10200 nM
same,IC50,[10],> 10200 nM
same,IC50,[11],> 10200 nM
same,IC50,[12],> 10200 nM
same,IC50,[13],> 10200 nM
same,IC50,[14],> 10200 nM
O=c1[nH]c2ccccc2n1C1CCN(Cc2ccc(-c3nc4cc5[nH]cnc5cc4nc3-c3ccccc3)cc2)CC1,IC50,[15],> 2560 nM
same,IC50,[16],> 2560 nM
same,IC50,[1],> 2560 nM
same,IC50,[2],> 2560 nM
same,IC50,[17],> 2560 nM
same,IC50,[18],> 2560 nM
same,IC50,[19],> 2560 nM
same,IC50,[20],> 2560 nM
same,IC50,[21],> 2560 nM
same,IC50,[22],1890 nM
same,IC50,[23],> 2560 nM
same,IC50,[24],> 2560 nM
same,IC50,[25],> 2560 nM
same,IC50,[26],> 2560 nM
same,IC50,[27],> 2560 nM
same,IC50,[3],> 2560 nM
same,IC50,[28],1940 nM
same,IC50,[4],> 2560 nM
same,IC50,[29],1060 nM
same,IC50,[30],> 2560 nM
same,IC50,[31],2430 nM
same,IC50,[32],> 2560 nM
same,IC50,[33],> 2560 nM
same,IC50,[34],> 2560 nM
same,IC50,[35],> 2560 nM
same,IC50,[36],> 2560 nM
same,IC50,[5],> 2560 nM
same,IC50,[6],> 2560 nM
same,IC50,[37],1780 nM
same,IC50,[38],> 2560 nM
same,IC50,[7],> 2560 nM
same,IC50,[39],> 2560 nM
same,IC50,[40],> 2560 nM
same,IC50,[8],> 2560 nM
same,IC50,[9],> 2560 nM
same,IC50,[41],> 2560 nM
same,IC50,[42],> 2560 nM
same,IC50,[10],> 2560 nM
same,IC50,[43],> 2560 nM
same,IC50,[11],> 2560 nM
same,IC50,[12],> 2560 nM
same,IC50,[13],> 2560 nM
same,IC50,[44],> 2560 nM
same,IC50,[45],2290 nM
same,IC50,[46],> 2560 nM
same,IC50,[47],> 2560 nM
same,IC50,[48],> 2560 nM
same,IC50,[49],> 2560 nM
same,IC50,[14],> 2560 nM
same,IC50,[50],> 2560 nM
same,IC50,[51],> 2560 nM
same,IC50,[52],> 2560 nM
same,IC50,[53],> 2560 nM
same,IC50,[54],> 2560 nM
same,IC50,[55],> 2560 nM
same,IC50,[56],> 2560 nM
same,IC50,[57],> 2560 nM
same,IC50,[58],> 2560 nM
same,IC50,[59],> 2560 nM
same,IC50,[60],> 2560 nM
same,IC50,[61],> 2560 nM
same,IC50,[62],> 2560 nM
same,IC50,[63],> 2560 nM
